Data taken from PMC10746543, “Design principles for cyclin K molecular glue degraders” (Nature Chemical Biology, 2023).
Where “and” joins values, the source holds several entries; their conditions need not be identical. Equal values may be shown once.

How the values were obtained:
CDK12–cyclin K and DDB1 = target: T1, CDK12–cyclin K and DDB1 (Homo sapiens, UniProt Q16531+Q9NYV4, K965R); experiment: TR-FRET ternary complex formation assay (compound titration); assay type: binding; conditions: raw replicate titration data
T1 construct: His6–CDK12 (a.a. 713–1,052); full-length or beta-propeller B domain deletion (ΔBPB: a.a. 396–705 deleted) constructs of His6–DDB1ΔBPB, StrepII–Avi–DDB1, or His6–Spy–DDB1; made in house; host or cells: Trichoplusia ni High Five insect cells (baculovirus)
T1 sequence (Q9NYV4 713-1052 K965R): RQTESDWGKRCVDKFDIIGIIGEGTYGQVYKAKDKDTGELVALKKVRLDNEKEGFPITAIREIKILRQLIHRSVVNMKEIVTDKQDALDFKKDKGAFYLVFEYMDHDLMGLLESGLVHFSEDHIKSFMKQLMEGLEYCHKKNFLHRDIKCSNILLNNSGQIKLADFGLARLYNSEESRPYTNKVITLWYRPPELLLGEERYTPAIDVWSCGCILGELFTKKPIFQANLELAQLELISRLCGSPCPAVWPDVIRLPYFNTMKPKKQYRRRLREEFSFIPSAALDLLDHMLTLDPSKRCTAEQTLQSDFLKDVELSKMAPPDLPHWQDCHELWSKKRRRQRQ
T1 sequence (O75909 1-267 partner): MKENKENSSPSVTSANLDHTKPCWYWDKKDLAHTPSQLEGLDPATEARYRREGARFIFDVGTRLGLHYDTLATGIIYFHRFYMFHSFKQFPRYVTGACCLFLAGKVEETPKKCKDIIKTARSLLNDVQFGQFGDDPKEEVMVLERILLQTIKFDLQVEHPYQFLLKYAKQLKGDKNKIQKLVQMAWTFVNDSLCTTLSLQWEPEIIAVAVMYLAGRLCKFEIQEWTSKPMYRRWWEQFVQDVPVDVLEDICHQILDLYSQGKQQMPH
T1 sequence (Q16531 whole entry): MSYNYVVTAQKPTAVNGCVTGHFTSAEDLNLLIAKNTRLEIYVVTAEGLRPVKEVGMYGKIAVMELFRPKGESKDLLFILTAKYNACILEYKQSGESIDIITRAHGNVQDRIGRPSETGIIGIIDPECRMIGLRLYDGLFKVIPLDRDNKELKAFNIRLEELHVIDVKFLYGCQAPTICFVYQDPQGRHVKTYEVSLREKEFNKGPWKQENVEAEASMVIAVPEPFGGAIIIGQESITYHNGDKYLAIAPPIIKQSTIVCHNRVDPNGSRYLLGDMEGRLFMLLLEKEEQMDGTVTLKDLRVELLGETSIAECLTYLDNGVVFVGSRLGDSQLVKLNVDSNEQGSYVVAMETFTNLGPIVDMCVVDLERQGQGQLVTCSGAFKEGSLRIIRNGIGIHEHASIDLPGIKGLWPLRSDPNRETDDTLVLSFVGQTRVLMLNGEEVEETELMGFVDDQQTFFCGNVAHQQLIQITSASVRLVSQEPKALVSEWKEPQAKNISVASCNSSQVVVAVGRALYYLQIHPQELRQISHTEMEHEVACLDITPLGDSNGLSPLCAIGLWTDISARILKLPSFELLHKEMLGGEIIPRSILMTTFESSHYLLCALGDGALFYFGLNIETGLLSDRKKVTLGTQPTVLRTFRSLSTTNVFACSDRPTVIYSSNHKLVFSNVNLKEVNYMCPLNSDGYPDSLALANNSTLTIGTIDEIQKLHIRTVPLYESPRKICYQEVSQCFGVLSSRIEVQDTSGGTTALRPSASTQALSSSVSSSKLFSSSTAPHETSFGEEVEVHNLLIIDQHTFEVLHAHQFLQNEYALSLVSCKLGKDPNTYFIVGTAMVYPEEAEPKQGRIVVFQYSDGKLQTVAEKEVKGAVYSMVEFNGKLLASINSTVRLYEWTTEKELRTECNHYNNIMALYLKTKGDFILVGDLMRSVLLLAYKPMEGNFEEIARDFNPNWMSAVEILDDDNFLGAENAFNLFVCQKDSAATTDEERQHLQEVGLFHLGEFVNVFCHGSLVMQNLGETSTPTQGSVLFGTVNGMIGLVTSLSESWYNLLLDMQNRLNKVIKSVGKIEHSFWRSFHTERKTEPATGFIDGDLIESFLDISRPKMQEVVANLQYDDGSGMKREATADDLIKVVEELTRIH
Description: A 70 μs delay was employed to reduce background fluorescence. The TR-FRET signal was obtained through calculating the ratio of 520 nm to 490 nm fluorescence, and Prism 9 (GraphPad) was used for further data analysis.

[1] = system: cyclin K–eGFP degradation reporter; experiment: Cyclin K reporter stability analysis (dual-color cyclin K–eGFP reporter); assay type: cell-based, human; conditions: Supplementary Table 2; HEK293T cycK-eGFP reporter, 5 h; read-out: Cellular assays DC50
Method: HEK293T–Cas9 cells expressing the cyclin K–eGFP degradation reporter were resuspended at 1 × 10^6 ml^−1 and 50 µl of cell suspension was seeded in non-cell-culture-treated 384-well plates. Shortly after, cells were treated with drug or DMSO for 5 h. […] The fluorescent signal was quantified by flow cytometry (LSRFortessa flow cytometer, BD Biosciences). Using FlowJo (flow cytometry analysis software, BD Biosciences), the geometric mean of the eGFP and mCherry fluorescent signal for round and mCherry-positive cells was calculated. The ratio of eGFP to mCherry was normalized to the average of three DMSO-treated controls.

HEK293T cells = experiment: Drug sensitivity assay (CellTiter-Glo viability) with or without MLN4924 pretreatment; assay type: cell-based, human; conditions: Supplementary Table 2
Method: HEK293T–Cas9 cells were resuspended at 0.15 × 10^6 ml^−1 treated with DMSO or 100 nM MLN4924 and plated on 384-well plates. After 2 h, the indicated drugs were dispensed with a D300 digital dispenser (Tecan). After 3 days of drug exposure, cell viability was assessed using the CellTiter-Glo luminescent assay (Promega, G7572) on an CLARIOstar Plus, MARS 3.4 (BMG LabTech). Cell viabilities were calculated relative to DMSO controls.

Row | TR-FRET signal at compound concentration 4.68 nM (CDK12–cyclin K and DDB1; compound concentration 4.68 nM) | TR-FRET signal at compound concentration 21.6 nM (CDK12–cyclin K and DDB1; compound concentration 21.6 nM) | TR-FRET signal at compound concentration 36 nM (CDK12–cyclin K and DDB1; compound concentration 36 nM) | TR-FRET signal at compound concentration 79.2001 nM (CDK12–cyclin K and DDB1; compound concentration 79.2001 nM) | TR-FRET signal at compound concentration 158.4 nM (CDK12–cyclin K and DDB1; compound concentration 158.4 nM) | TR-FRET signal at compound concentration 309.6 nM (CDK12–cyclin K and DDB1; compound concentration 309.6 nM) | TR-FRET signal at compound concentration 626.401 nM (CDK12–cyclin K and DDB1; compound concentration 626.401 nM) | TR-FRET signal at compound concentration 1252.8 nM (CDK12–cyclin K and DDB1; compound concentration 1252.8 nM) | TR-FRET signal at compound concentration 2448 nM (CDK12–cyclin K and DDB1; compound concentration 2448 nM) | TR-FRET signal at compound concentration 9936.01 nM (CDK12–cyclin K and DDB1; compound concentration 9936.01 nM) | TR-FRET signal at compound concentration 20016 nM (CDK12–cyclin K and DDB1; compound concentration 20016 nM) | DC50 [1] [nM] | Compound | EC50 (HEK293T cells; Homo sapiens, HEK-293T, HEK293T viability, 72 h, compound alone, read-out: Cellular assays EC50) [nM] | Toxicity rescue (HEK293T cells; MLN4924-mediated cytotoxicity rescue, 10 µM used where n.d.) [%]
1 | 0.2092 and 0.2185 | 0.2003 and 0.2155 | 0.2049 and 0.2158 | 0.208 and 0.2231 | 0.2009 and 0.2135 | 0.2037 and 0.2058 | 0.2061 and 0.2177 | 0.2168 and 0.2226 | 0.212 and 0.232 | 0.2386 and 0.258 | 0.2819 and 0.2859 | > 10000 | CCc1ccc2nc(Nc3cc(Cc4ccccc4)nc(N[C@H]4CC[C@H](O)CC4)n3)sc2c1 [GSK2250665A, reference compound] | – | –
2 | – | – | – | – | – | – | – | – | – | – | – | < 50 | CC(C)(C)c1cnc(CSc2cnc(NC(=O)C3CCN(CC(=O)NCCOCCOCCOCCNc4cccc5c4C(=O)N(C4CCC(=O)NC4=O)C5=O)CC3)s2)o1 (stereo not drawn) [THAL-SNS032] | 192 | 267
